Measurements published in patent US20230312524A1, “ALPHA1A-ADRENERGIC RECEPTOR AGONISTS AND METHODS OF USE” (CuraSen Therapeutics, Inc., priority 2020, published 2023).
Read-outs that look alike come from different tables or passages of the source.

Molecular target: T1, α1A-ARS (Homo sapiens, UniProt P35348)
T1 sequence (P35348 1-466): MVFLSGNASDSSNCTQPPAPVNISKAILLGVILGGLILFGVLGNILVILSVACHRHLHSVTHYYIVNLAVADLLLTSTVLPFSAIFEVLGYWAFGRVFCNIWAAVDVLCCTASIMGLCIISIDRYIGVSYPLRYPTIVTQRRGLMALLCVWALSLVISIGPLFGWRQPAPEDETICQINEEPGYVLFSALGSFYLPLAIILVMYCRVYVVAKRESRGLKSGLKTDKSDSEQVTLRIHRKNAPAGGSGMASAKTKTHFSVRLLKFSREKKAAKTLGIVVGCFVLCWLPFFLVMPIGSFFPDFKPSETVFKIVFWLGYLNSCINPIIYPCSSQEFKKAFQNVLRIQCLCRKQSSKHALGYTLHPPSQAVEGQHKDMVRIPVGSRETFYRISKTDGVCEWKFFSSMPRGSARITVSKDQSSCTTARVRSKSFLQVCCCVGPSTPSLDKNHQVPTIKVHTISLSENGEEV
Assay: Calcium flux assay (Calcium 6 dye) in cells expressing an α1-AR
Format: cell-based
Conditions: for EC50: mean of at least three experiments, read-out: Average PEC50; for Emax: read-out: Average Emax
Text: Calcium flux experimental design: alpha-1 adrenergic receptors (α1-ARs) couple to Gq proteins, which results in downstream activation of phospholipase C and release of calcium from intracellular stores. Intracellular calcium increase upon α1-AR activation can be detected by Calcium 6 dye.
Cell preparation: cells expressing an α1-AR were washed in warmed phosphate-buffered saline to remove medium and harvested using versene (Caisson Labs, catalog #EDL01).
Media was removed from cells by tapping plates upside-down on absorbent wipes, followed by 15 second upside-down 50×g centrifugation, again on absorbent wipes. 12 μL cell dye solution was added to cells using a reagent dispenser (Integra viaFILL) and cells were incubated for 90 minutes at 37° C., 5% CO2.
Compound preparation: candidate alpha-adrenergic compounds, dissolved to 10 mM in DMSO, were diluted in_assay buffer (HBSS/H-EPES containing 2 mM CaCl2 and 2 mM probenecid sodium salt). […] On all assay plates, vehicle (DMSO) and positive control (10 μM epinephrine) conditions were included on the plate, as well as a dose-response curve of epinephrine. […] 384 well compound plates were centrifuged briefly at 250×g, sealed (Axygen PCR-SP) and incubated at 37° C. until the 90 minute cell dye incubation was complete.
Calcium 6 stained cells and 384 well compound plates were loaded onto the Flexstation and incubated on the machine for 5 minutes before initiating the assay.
For each assay well, baseline Calcium 6 fluorescence was detected for 18 seconds prior to 12 μL compound addition at 12 μL per second. Changes in Calcium 6 fluorescence were detected for a further 22 seconds, for a total read time of 40 seconds. All detection was performed with medium gain sensitivity, bottom read, with 6 flashes per read.
Data analysis: for calcium flux, analysis of maximum change from baseline over the 40-second read time was determined using Softmax Pro and data was exported as raw text files. Potency estimates (EC50) were derived from dose response curves (maximum change from baseline versus the log concentration of test compound) fit by four-parameter nonlinear regression using Graphpad Prism. Efficacy was determined by comparing the magnitude of the test compound signal window (fitted curve max−min) with the signal window of the full agonist control, epinephrine. […] All experiments were repeated a minimum of three times, with the average (mean) potency and maximum effect relative to the within-plate full agonist dose-response comparator reported.

[1] = calcium flux, α1A-AR, maximum effect relative to full agonist epinephrine

Row | Compound | EC50 (calcium flux, α1A-AR) [nM] | Emax [%] | Emax [1] [%]
1 | Clc1ccccc1CC1=NCCN1 [Compound 153] | 10 to 977 | < 20 | 
2 | FC(F)(F)c1ccc(CC2=NCCN2)c(Cl)c1 [Compound 133] | 10 to 977 | 21 to 60 | 
3 | Cc1cc(OC(F)F)ccc1CC1=NCCN1 [Compound 129] | 10 to 977 | 21 to 60 | 
4 | C[C@H](O)c1ccc(CC2=NCCN2)c(Cl)c1 [Compound 163] | 10 to 977 |  | > 61
5 | CC(C)(C)c1cc(Cl)ccc1CC1=NCCN1 [Compound 41] | > 1000 | < 20 | 
6 | C[C@H](O)c1cc(Cl)ccc1CC1=NCCN1 [Compound 145] | > 1000 |  | < 20
7 | Cc1c(CC2=NCCN2)ccc2c1CCO2 [Compound 58] | 10 to 977 | 21 to 60 | 
8 | Clc1ccc(CC2=NCCN2)c(-c2ccncn2)c1 [Compound 34] | > 1000 |  | 21 to 60
9 | Cc1oc2ccc(CC3=NCCN3)cc2c1C [Compound 42] | > 1000 | < 20 | 
10 | FC(F)(F)Oc1ccc(Cl)c(CC2=NCCN2)c1 [Compound 167] | 10 to 977 | > 61 | 
11 | CC(C)Cc1cc(Cl)ccc1CC1=NCCN1 [Compound 88] | 10 to 977 | > 61 | 
12 | Cc1c(CC2=NCCN2)cccc1C(F)(F)F [Compound 126] | 10 to 977 | 21 to 60 | 
13 | Clc1ccc(CC2=NCCN2)c(-c2ccco2)c1 [Compound 30] | < 9.77 |  | > 61
14 | Clc1cn(C2CC2)c2cc(CC3=NCCN3)ccc12 [Compound 63] | 10 to 977 | 21 to 60 | 
15 | Cc1c(CC2=NCCN2)ccc(S(=O)(=O)CF)c1Cl [Compound 140] | > 1000 |  | > 61
16 | C[C@@H](O)c1cc(Cl)ccc1CC1=NCCN1 [Compound 146] | > 1000 |  | < 20
17 | Cc1c(CC2=NCCN2)ccc(Cl)c1-c1ccnn1C [Compound 15] | > 1000 |  | < 20
18 | Cc1cc(C(F)(F)F)ccc1CC1=NCCN1 [Compound 66] | 10 to 977 | 21 to 60 | 
19 | Fc1ccc(CC2=NCCN2)c(C(F)(F)F)c1 [Compound 80] | > 1000 | 21 to 60 | 
20 | CCc1c(CC2=NCCN2)ccc(S(=O)(=O)CF)c1Cl [Compound 141] | > 1000 |  | > 61
21 | Clc1ccc(CC2=NCCN2)cc1 [Compound 152] | > 1000 | < 20 | 
22 | Cc1cc(OC(F)(F)F)ccc1CC1=NCCN1 [Compound 128] | 10 to 977 | 21 to 60 | 
23 | Cc1csc(-c2cc(Cl)ccc2CC2=NCCN2)n1 [Compound 24] | 10 to 977 |  | 21 to 60

Row | Compound | EC50 (calcium flux, α1A-AR) [nM] | Emax [%] | Emax [1] [%]
24 | Cc1c(CC2=NCCN2)ccc(Cl)c1-c1cn[nH]c1 [Compound 17] | > 1000 |  | < 20
25 | CCc1cc(S(=O)(=O)CF)ccc1CC1=NCCN1 [Compound 110] | 10 to 977 |  | > 61
26 | Cc1c(CC2=NCCN2)ccc(-c2ncco2)c1Cl [Compound 12] | 10 to 977 |  | < 20
27 | Cc1coc2c(CC3=NCCN3)cccc12 [Compound 60] | 10 to 977 | 21 to 60 | 
28 | Cn1nccc1-c1cc(Cl)ccc1CC1=NCCN1 [Compound 16] | 10 to 977 |  | 21 to 60
29 | CC(F)(F)c1cc(OC(F)F)ccc1CC1=NCCN1 [Compound 151] | 10 to 977 | 21 to 60 | 
30 | FCc1cc(Cl)ccc1CC1=NCCN1 [Compound 76] | 10 to 977 | 21 to 60 | 
31 | Cc1c(CC2=NCCN2)cccc1-c1cccs1 [Compound 26] | 10 to 977 |  | < 20
32 | Cc1c(CC2=NCCN2)ccc2cc[nH]c12 [Compound 61] | 10 to 977 | < 20 | 
33 | CC(F)(F)c1cc(OC(F)(F)F)ccc1CC1=NCCN1 [Compound 162] | > 1000 |  | 21 to 60
34 | CC(C)c1cc(Cl)ccc1CC1=NCCN1 [Compound 84] | 10 to 977 | 21 to 60 | 
35 | FC(F)(F)c1ccc(CC2=NCCN2)c(C2CCCCC2)c1 [Compound 96] | > 1000 |  | 21 to 60
36 | FC(F)Oc1ccc(Cl)c(CC2=NCCN2)c1 [Compound 161] | 10 to 977 | > 61 | 
37 | Cc1c(CC2=NCCN2)ccc(S(C)(=O)=O)c1Cl [Compound 139] | > 1000 |  | 21 to 60
38 | FC(F)(F)c1cccc(CC2=NCCN2)c1Cl [Compound 131] | 10 to 977 | 21 to 60 | 
39 | COc1c(CC2=NCCN2)ccc2occc12 [Compound 47] | 10 to 977 | 21 to 60 | 
40 | Cc1c(CC2=NCCN2)ccc2[nH]ncc12 [Compound 55] | 10 to 977 | 21 to 60 | 
41 | Clc1ccc(CC2=NCCN2)c(Cc2ccccc2)c1 [Compound 120] | > 1000 |  | < 20
42 | FC(F)Oc1cc(Cl)ccc1CC1=NCCN1 [Compound 114] | 10 to 977 | 21 to 60 | 
43 | Cc1cc(F)ccc1CC1=NCCN1 [Compound 73] | 10 to 977 | 21 to 60 | 
44 | Clc1ccc(CC2=NCCN2)c(-c2ccccc2)c1 [Compound 74] | 10 to 977 |  | > 61
45 | Cc1c(CC2=NCCN2)cccc1-c1ncco1 [Compound 5] | 10 to 977 |  | 21 to 60
46 | Cc1csc(-c2ccc(CC3=NCCN3)cc2Cl)n1 [Compound 4] | > 1000 |  | < 20

Row | Compound | EC50 (calcium flux, α1A-AR) [nM] | Emax [%] | Emax [1] [%]
47 | Cc1c(CC2=NCCN2)cc(C)c2occc12 [Compound 44] | 10 to 977 | 21 to 60 | 
48 | Cc1c(Cl)cccc1CC1=NCCN1 [Compound 89] | > 1000 | 21 to 60 | 
49 | Clc1ccc(CC2=NCCN2)cc1-c1ncco1 [Compound 10] | 10 to 977 |  | 21 to 60
50 | Cc1c(CC2=NCCN2)cccc1-c1ccnn1C [Compound 7] | 10 to 977 |  | 21 to 60
51 | Cc1c(CC2=NCCN2)cccc1-c1ccco1 [Compound 29] | 10 to 977 |  | 21 to 60
52 | N#Cc1ccc(CC2=NCCN2)c(C(F)(F)F)c1 [Compound 83] | > 1000 | 21 to 60 | 
53 | Cc1cc(CC2=NCCN2)cc(C(F)(F)F)c1 [Compound 130] | 10 to 977 | > 61 | 
54 | Clc1cc2occc2cc1CC1=NCCN1 [Compound 53] | < 9.77 | > 61 | 
55 | CCc1c(CC2=NCCN2)ccc(S(=O)(=O)C(F)(F)F)c1Cl [Compound 150] | > 1000 |  | 21 to 60
56 | Cc1oc2cc(CC3=NCCN3)ccc2c1C [Compound 43] | 10 to 977 | 21 to 60 | 
57 | CC(C)(C)c1ccccc1CC1=NCCN1 [Compound 64] | > 1000 | < 20 | 
58 | FC(F)Oc1cccc(CC2=NCCN2)c1Cl [Compound 160] | 10 to 977 | > 61 | 
59 | Cc1c(CC2=NCCN2)cccc1-n1cccn1 [Compound 22] | 10 to 977 |  | 21 to 60
60 | FC(F)(F)c1ccc(CC2=NCCN2)c(C2CC2)c1 [Compound 77] | 10 to 977 | > 61 | 
61 | FC(F)(F)c1ccc(Cl)c(CC2=NCCN2)c1 [Compound 132] | 10 to 977 | > 61 | 
62 | Cc1cc(Cl)cc(C)c1CC1=NCCN1 [Compound 123] | 10 to 977 | > 61 | 
63 | FC(F)(F)c1ccc(CC2=NCCN2)c(N2CCOCC2)c1 [Compound 68] | > 1000 |  | < 20
64 | CC(C)Oc1cc(Cl)ccc1CC1=NCCN1 [Compound 102] | 10 to 977 | 21 to 60 | 
65 | c1ccc(-c2ncco2)c(CC2=NCCN2)c1 [Compound 158] | 10 to 977 |  | 21 to 60
66 | Clc1cccc(CC2=NCCN2)c1-n1cccc1 [Compound 109] | 10 to 977 |  | > 61
67 | c1cc(CC2=NCCN2)c2occc2c1 [Compound 48] | 10 to 977 | > 61 | 
68 | Cc1ccc(Cl)cc1CC1=NCCN1 [Compound 86] | 10 to 977 | 21 to 60 | 
69 | Cc1cc2cccc(CC3=NCCN3)c2o1 [Compound 59] | 10 to 977 | > 61 | 
